The text below walks through data of patent publication US8871751B2, “Compositions and methods relating to nuclear hormone and steroid hormone receptors including inhibitors of estrogen receptor alpha-mediated gene expression and inhibition of breast cancer” (The Board of Trustees of the University of Illinois, priority 2008, dated 2014).

Test [1] concerns the target T1, ERα (Homo sapiens, UniProt P03372).
T1 sequence (P03372 1-595): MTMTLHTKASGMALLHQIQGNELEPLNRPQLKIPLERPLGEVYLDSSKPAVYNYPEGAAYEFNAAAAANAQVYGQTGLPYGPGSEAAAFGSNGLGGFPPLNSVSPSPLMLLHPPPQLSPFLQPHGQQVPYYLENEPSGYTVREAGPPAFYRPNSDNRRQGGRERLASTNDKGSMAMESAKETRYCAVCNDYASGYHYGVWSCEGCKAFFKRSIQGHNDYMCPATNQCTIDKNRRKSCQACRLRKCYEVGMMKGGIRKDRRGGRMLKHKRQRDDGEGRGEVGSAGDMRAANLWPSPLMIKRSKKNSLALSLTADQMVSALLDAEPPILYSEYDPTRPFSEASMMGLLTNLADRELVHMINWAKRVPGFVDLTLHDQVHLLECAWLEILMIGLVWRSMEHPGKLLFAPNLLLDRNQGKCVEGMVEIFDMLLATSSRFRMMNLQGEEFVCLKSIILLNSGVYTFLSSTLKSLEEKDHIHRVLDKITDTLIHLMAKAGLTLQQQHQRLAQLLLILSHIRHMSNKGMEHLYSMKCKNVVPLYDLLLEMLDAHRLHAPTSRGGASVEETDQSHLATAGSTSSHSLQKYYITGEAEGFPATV
More on the design: Using a stably transfected breast cancer cell line that expresses endogenous ERα; endogenous in cells; host or cells: T47D-KBluc. The note with it: T47D cells, conditions identical to TPSF; see Mao C et al., 2008; read-out: IC50 for inhibition of E2-ERα-mediated (ERE)3-luciferase expression; cited from earlier work.

Test [2] has as its target T1, ERα. Description: Estrogen induction of cyclin D1 mRNA in MCF-7 cells. The note with it: 10 μM, 10 nM E2, 24 h. The class given is cell-based. More on the design: endogenous in cells. Here is the method: FIG. 15 illustrates results of testing for inhibition of the estrogen induction of Cyclin D1 mRNA. MCF-7 cells were plated and 24 h later treated with ethanol vehicle, 10 nM E2, or 10 nM E2 and 10 μM TPSF. Cells were maintained for 24 hours, RNA was extracted and cyclin D1 mRNA levels were measured by qRT-PCR. Cyclin D1 mRNA levels in the vehicle only sample were set to 1. Data is the average±SEM for 3 experiments each assayed in triplicate.
(§1) Endogenous Gene Expression. MCF-7 cells or MCF7ERαHA cells were maintained for 4 days in medium containing 5% CD calf serum (MCF-7 cells) or 10% 6×CD-FBS (MCF7ERαHA cells). In assays of TPSF inhibition of PI-9 induction, cells were plated, incubated for 24 hours in the indicated concentrations of TPSF and then maintained 4 hours with and without E2, with and without TPSF. To induce ERα, MCF7ERαHA cells were also maintained in 0.5 μg/ml Dox for 24 hours prior to addition of E2 or OHT with or without TPSF. For induction of cyclin D1, 24 hours after plating the cells, E2 with and without TPSF was added, the cells were maintained for 24 hours, RNA was extracted and mRNA levels were determined by quantitative RT-PCR as described (19, 26). Actin mRNA levels were used as the qRT-PCR internal standard. The primers and sequences used in qRT-PCR were as follows.

The subject of a further test is MCF7ERαHA cells. Put plainly: Growth of tamoxifen-resistant MCF7ERαHA cells (MTS). The class given is cell-based, human. The settings on record: 5 μM, Dox, 1 pM E2, 4 days. As to the method:
FIG. 19 illustrates that TPSF, but not OHT, is capable of inhibiting E2-ERα-dependent growth of tamoxifen-resistant breast cancer cells as measured in MCF7ERαHA cells. MCF7ERαHA cells were maintained for 4 days in 6× stripped CD-FBS, seeded into 12 well plates containing or lacking Dox (0.5 μg/ml), E2 (1 pM) OHT (5 μM) and TPSF (5 μM), grown for 4 days and assayed using MTS with a standard curve for cell number. Cells in ethanol and DMSO vehicle alone were set to 100%. Data represents the average of 3 experiments±SEM. The difference between the cells incubated with TPSF+E2+Dox compared to the cells in Dox, and E2 and to the cells in Dox, E2 and OHT was significant (P<0.05 using Student's two-tailed T test).
(§2) Assays for Cell Growth and Viability. Cells were maintained in the media listed above containing CD-treated serum for at least 4 days prior to the experiment. To minimize cell aggregation, MCF-7 cells were harvested in 10 mM Hepes, pH 7.4, 1 mM EDTA. Other cell lines were harvested in trypsin-EDTA. 1,000 cells were plated into each well of a 96 well plate. For slow growing ZR-75 cells, 2,000 cells were plated/well. The cells were maintained in medium containing CD-treated serum for 24 hours. […] After 4 days viable cells were determined using a cell viability test, Promega CellTiter 96 Aqueous One Solution Cell Proliferation Assay (MTS) (Promega, Wis.).

Test [3] addresses T1, ERα. Description: Endogenous PI-9 mRNA induction in MCF-7 cells (qRT-PCR). The format is cell-based. More on the design: endogenous in cells. The note with it: 10 nM E2, read-out: IC50 for inhibition of E2-ERα induction of endogenous PI-9 mRNA (Endog. PI-9). Here is the method: as §1
Background: In qPCR the cycle at which signal appears reflects the starting amount.

The next test has as its system ZR-75 cells. Put plainly: E2-ERα-dependent growth of ZR-75 cells (MTS). The class given is cell-based. The settings on record: Homo sapiens, ZR75, 96 h, 100 pM E2, 4 days, read-out: IC50 for inhibition of E2-ERα-dependent growth of ZR-75 cells. As to the method: FIG. 20 illustrates further activity of TPSF in the inhibition of tamoxifen-resistant human breast cancer cells. The effects of TPSF on the E2-ERα-dependent growth of tamoxifen-resistant BT474 and ZR-75 cells were assessed. […] The cells were maintained in medium containing 10% CD-FBS (ZR-75) or 10% CD-CS (BT474) containing or lacking 100 pM E2 and the indicated concentrations of TPSF. Viable cells were measured by comparison to a standard curve of cell number versus absorbance using the MTS assay. Data represents the average of at least 4 wells. IC50 values for TPSF inhibition of cell growth were calculated by curve-fitting using Sigma Plot.
as §2, with “hours. At 24 hours the medium was changed and E2 and DMSO vehicle or TPSF in DMSO was added.” for “hours.”

Test [4] concerns the target T1, ERα. Put plainly: (ERE)3-luciferase reporter gene assay in T47D-KBluc cells. The arrangement: Using a stably transfected breast cancer cell line that expresses endogenous ERα; endogenous in cells; host or cells: T47D-KBluc. The class given is cell-based. For orientation: In a reporter assay the amount or activity of a reporter protein is the signal.

“Also recorded” adds a separate entry of the source. Where two headings read alike, the source gives them in different places.

The IC50 is the point on the concentration scale where inhibition reaches its midpoint. On to `Cn1c(=O)c2nc(CSCc3ccccc3)[nH]c2n(C)c1=O` [Compound 95910, 8-Benzylsulfanylmethyl-1,3-dimethyl-3,7-dihydro-purine-2,6-dione], for which the IC50 at ERα [1] is 11000 nM.

`Cn1c(=S)c2[nH]c(SCCCC(=O)c3ccc(F)cc3)nc2n(C)c1=O` [TPSF, Butyrophenone, p-fluoro-4-(1,2,3,6,-tetrahydro-1,3-dimethyl-2-oxo-6-thionopurin-8-ylthio)]: the “effect on E2 induction of cyclin D1 mRNA” value at ERα [2] is “completely inhibited; also recorded: abolished”. For the same compound, the “effect on E2-ERα-dependent growth of MCF7ERαHA cells” value in the test on MCF7ERαHA cells was “inhibited”. Also, the IC50 at ERα [3] came to 200 nM; in the test on ZR-75 cells it was 900 nM; on ERα [4] (0.2 nM E2, 24 h, read-out: IC50 for inhibition of E2-ERα-mediated (ERE)3-luciferase expression), 400 nM; at ERα [4] (100 nM E2, 24 h, read-out: IC50 for inhibition of E2-ERα-mediated (ERE)3-luciferase expression (ERE-Luc)), 700 nM.
